Experimental data taken from PubChem BioAssay (NCI).
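Growth conditions: 96-well plates. Treatment: test compound, 48 hours, 5 concentrations. Analysis: linear interpolation between bracketing concentrations; unreached endpoints set to highest concentration. GI50 = concentration required for 50% inhibition of growth. TGI: total growth inhibition.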

How the values were obtained:
Experiment in all cases: DTP human tumour cell line panel, 48 h
BT-549 breast = system: BT-549 breast
LOX IMVI melanoma = system: LOX IMVI melanoma
MCF7 breast = system: MCF7 breast
MDA-MB-231 breast = system: MDA-MB-231 breast
SNB-75 CNS = system: SNB-75 CNS
UACC-62 melanoma = system: UACC-62 melanoma
UO-31 renal = system: UO-31 renal
HL-60(TB) leukemia = system: HL-60(TB) leukemia

Row | Structure (SMILES) | GI50 (BT-549 breast) | TGI (BT-549 breast) | GI50 (LOX IMVI melanoma) | TGI (LOX IMVI melanoma) | GI50 (MCF7 breast) | TGI (MCF7 breast) | GI50 (MDA-MB-231 breast) | TGI (MDA-MB-231 breast) | GI50 (SNB-75 CNS) | TGI (SNB-75 CNS) | GI50 (UACC-62 melanoma) | TGI (UACC-62 melanoma) | GI50 (UO-31 renal) | TGI (UO-31 renal) | TGI (HL-60(TB) leukemia) | GI50 (HL-60(TB) leukemia)
1 | O=C([O][Sn]([O]C(=O)c1ccccn1)([c]1ccccc1)[c]1ccccc1)c1ccccn1 | 8.25 µM | 20.7 µM | 1400 nM | 2.7 µM | 2670 nM | 13.4 µM | 5.29 µM | 18.4 µM | 2.54 µM | 13 µM | 4.96 µM | 17.5 µM | 2.05 µM | 4.66 µM |  | 
2 | C=C1C(=O)OC2CC(C)C3CC(O)OC(OCC)C3(C)CC12 (configuration not stated) |  | > 58.4 µM |  | 17.4 µM |  | 26.7 µM |  | 34.8 µM |  | 50.8 µM |  | > 52.1 µM |  | 53.7 µM | > 30 µM | 
3 | NCCOCCOCCNc1nc(-c2ccc(Cl)cc2)nc(N2CCN(c3ccccn3)CC2)n1 | 4.48 µM | 21.2 µM |  |  |  |  | 2.55 µM | 6.01 µM | 2.32 µM | 7.45 µM | 1.99 µM | 3.91 µM | 2.07 µM | 5.02 µM | 4.15 µM | 2.12 µM
4 | CC1=Nc2ccccc2/C1=C\c1c(C)[nH]c2ccccc12 |  | 15.1 µM |  | 62.4 µM |  | 18.3 µM |  | 33.3 µM |  | 71.5 µM |  | 25.1 µM |  | 27.5 µM | 50.2 µM | 
5 | S=c1nc(N/N=C/c2ccco2)c2cn[nH]c2[nH]1 | 75.2 µM | > 100 µM | 58700 nM | > 100 µM | 3600 nM | > 100 µM | > 100 µM | > 100 µM | > 100 µM | > 100 µM | 33.8 µM | > 100 µM | 98.1 µM | > 100 µM | > 100 µM | 77.1 µM
6 | Cc1nc2ccc(NC(=O)CCNC(=O)CCCc3ccc(CC(C(=O)O)C(=O)O)cc3)cc2s1 | > 100 µM | > 100 µM | > 100000 nM | > 100 µM | > 100000 nM | > 100 µM | > 100 µM | > 100 µM | > 100 µM | > 100 µM | > 100 µM | > 100 µM | > 100 µM | > 100 µM | > 100 µM | > 100 µM
7 | OCc1ccc(-c2cscc2-c2ccc(CO)o2)o1 | > 87.5 µM | > 100 µM | > 100000 nM | > 100 µM | 570 nM | 25.1 µM | > 100 µM | > 100 µM | 34.5 µM | > 100 µM | 0.435 µM | 2.2 µM | 56.1 µM | > 100 µM | > 100 µM | > 100 µM
8 | O=c1/c(=C\c2ccc(F)cc2)sc2n1C(c1ccc(F)cc1)C1=C(N=2)c2ccc3ccccc3c2OCC1 (configuration not stated) | > 64.5 µM | > 100 µM | > 100000 nM | > 100 µM | > 100000 nM | > 100 µM | > 100 µM | > 100 µM | > 100 µM | > 100 µM | > 100 µM | > 100 µM | > 100 µM | > 100 µM | > 100 µM | > 100 µM
9 | COc1ncnc(S(=O)(=O)c2ccc(N=C3C(=O)N(CN4CCN(c5cc6c(cc5F)c(=O)c(C(=O)O)cn6C5CC5)CC4)c4ccc(Cl)cc43)cc2)c1OC |  |  | 23800 nM | > 50 µM | 34100 nM | > 50 µM | 28.5 µM | > 50 µM |  |  | 8.75 µM | > 50 µM | 47.2 µM | > 50 µM | > 50 µM | 26.8 µM
10 | Cc1c(-c2ccnc(N)n2)c2c(n1Cc1ccccc1)C(=O)c1ccccc1C2=O | 2.99 µM | 8.4 µM | 1980 nM | 6.65 µM |  |  | 1.73 µM | 30.2 µM |  |  | > 100 µM | > 100 µM | 3.28 µM | 21.8 µM |  | 
11 | C=CC(=O)Nc1cc(N2CCN(CC)CC2)ccc1Nc1cc(N(C)C(=O)Nc2c(Cl)c(OC)cc(OC)c2Cl)ncn1 | 3.07 µM | 15.1 µM | 2820 nM | 11.9 µM | 2700 nM | 19.2 µM | 3.26 µM | 11.5 µM | 2.48 µM | 14.2 µM | 12.8 µM | 27.3 µM | 8.53 µM | 22.2 µM | 25.3 µM | 4.91 µM
12 | COc1ccc(-c2nc(-c3nc4ccc(F)cc4[nH]3)c3ccccn23)cc1 | 4.84 µM | 22.9 µM | 10800 nM | > 100 µM | 6150 nM | > 100 µM | 4.34 µM | 30.4 µM | 3.4 µM | 12.4 µM | 5.41 µM | 36.1 µM | 6.99 µM | 56.2 µM | > 100 µM | 39.8 µM
13 | COc1cc2c(cc1O)CC1c3c(cc(O)c(OC)c3-2)CCN1C (configuration not stated) |  | > 100 µM |  | > 100 µM |  | > 100 µM |  | > 100 µM |  | > 100 µM |  | > 100 µM |  | > 100 µM | > 100 µM | 
14 | CC1=Cc2ccc(C)cc2C(=O)C1=O |  | 49.1 µM |  | 20.7 µM |  | 54.5 µM |  | 59.6 µM |  | 21.8 µM |  | 40.3 µM |  | 3.04 µM | 4.13 µM | 
15 | COc1ccc(C(O)c2cc3c(N)c(C(=O)Nc4cccc(Cl)c4)sc3nc2C)cc1 (configuration not stated) | 2.09 µM | > 38.5 µM | 1710 nM | > 40.7 µM | 1110 nM | > 67.2 µM | 1.41 µM | > 33.1 µM | 0.22 µM | 16.6 µM | 2.14 µM | > 80.2 µM | 2.41 µM | > 56.2 µM | 2.78 µM | 0.868 µM
16 | C1CC2CN(CCCN3CCOCC3)C(C1)O2 (configuration not stated) |  | > 100 µM |  | > 100 µM |  | > 100 µM |  | > 100 µM |  | > 100 µM |  | > 100 µM |  | > 100 µM | > 100 µM | 
17 | Cc1ccc(N=Nc2c(O)ccc3ccccc23)cc1 |  | > 100 µM |  | > 100 µM |  |  |  | > 100 µM |  | > 100 µM |  | > 100 µM |  | > 100 µM |  | 
18 | Cc1cc(O)c(C2=NN(c3ccc(S(N)(=O)=O)cc3)C(c3ccc(Cl)cc3)C2)c(C)c1Cl (configuration not stated) | 13.1 µM | 27.7 µM | 2340 nM | 6.98 µM | 2010 nM | 10.5 µM | 2.34 µM | 11.8 µM | 10.9 µM | 23.7 µM | 3.49 µM | 15.1 µM | 3.78 µM | 19.2 µM | 20.8 µM | 7.84 µM
